Reference: PubChem BioAssay (NCI)
Where “and” joins values, the source holds several entries; their conditions need not be identical. Equal entries are not always repeated.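 Grown in 96-well plates, cells were treated for 48 hours with each compound at five concentrations. Insufficient inhibition: endpoint recorded as highest concentration tested. At the GI50, growth is halved. TGI is the concentration that stops growth completely.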

Columns and labels:
Test in all cases: inhibition of tumour cell growth, NCI panel, 48 h
HOP-92 NSCLC = test system: HOP-92 NSCLC
IGROV1 ovarian = test system: IGROV1 ovarian
M14 melanoma = test system: M14 melanoma
MOLT-4 leukemia = test system: MOLT-4 leukemia
SK-OV-3 ovarian = test system: SK-OV-3 ovarian
SNB-75 CNS = test system: SNB-75 CNS
UACC-62 melanoma = test system: UACC-62 melanoma
K-562 leukemia = test system: K-562 leukemia
MDA-MB-231 breast = test system: MDA-MB-231 breast
T-47D breast = test system: T-47D breast

Compound	TGI (HOP-92 NSCLC)	TGI (IGROV1 ovarian)	TGI (M14 melanoma)	TGI (MOLT-4 leukemia)	TGI (SK-OV-3 ovarian)	TGI (SNB-75 CNS)	TGI (UACC-62 melanoma)	TGI (K-562 leukemia)	TGI (MDA-MB-231 breast)	GI50 (MOLT-4 leukemia)	TGI (T-47D breast)	GI50 (HOP-92 NSCLC)	GI50 (IGROV1 ovarian)	GI50 (K-562 leukemia)	GI50 (M14 melanoma)	GI50 (MDA-MB-231 breast)	GI50 (SK-OV-3 ovarian)	GI50 (SNB-75 CNS)	GI50 (UACC-62 melanoma)	GI50 (T-47D breast)
COC(=O)C1C=CCC2CCCCC21N1CCCC1 (stereo not given)	> 100 µM	> 100 µM	> 100 µM	> 100 µM	> 100 µM	> 100 µM	> 100 µM													
Cc1cc(=O)[nH]c(NNC(C#N)c2cccc([N+](=O)[O-])c2)n1 (stereo not given)	> 100 µM	> 100 µM	> 100 µM	> 100 µM	> 100 µM	> 100 µM	> 100 µM	> 100 µM												
CC(=O)Nc1ccc(C2CC(c3ccc([N+](=O)[O-])cc3)=Nc3ccccc3S2)cc1 (stereo not given)		67.2 µM	27.6 µM	39.6 µM	87.8 µM	> 100 µM	32.1 µM	42 µM												
OCC(O)C(O)C(O)C(/C=N\Nc1ncnc2c(Br)cc(Br)cc12)=N/Nc1ncnc2c(Br)cc(Br)cc12 (stereo not given)		10.1 µM and > 100 µM	28.3 µM and 44.2 µM	34.3 µM and > 100 µM	10 µM and > 100 µM			26.9 µM and > 100 µM	15.7 µM and > 100 µM	4.91 µM and 2.37 µM										
COC1(OC)C2(Cl)C3=CCCC=C3C1(Cl)C(Cl)=C2Cl	70.1 µM	> 100 µM	31.4 µM	76.9 µM	72.6 µM	> 100 µM	> 100 µM													
O=C(c1ccccc1)C1N=NN(Cc2ccccc2[N+](=O)[O-])C1C(=O)c1ccccc1 (stereo not given)	> 100 µM	> 100 µM	> 100 µM	> 100 µM	> 100 µM	> 100 µM	> 100 µM	> 100 µM												
CCOc1c(Br)cc(Br)cc1C=C(C#N)C#N	> 10 µM	> 10 µM		> 10 µM	> 10 µM	> 10 µM	> 10 µM	> 10 µM			> 10 µM									
CCCCCCCC(=O)OCC/C=C/C1OC1C1OC(=O)/C=C\C=C\C(=O)N(C(C)=O)C(=O)/C=C(/C)CCC2OC2C1OC(=O)NC(C)=O (stereo not given)	7.38 µM	8.28 µM	> 25 µM	> 25 µM	> 25 µM	17.9 µM	> 25 µM	> 25 µM	> 25 µM	10.1 µM		0.823 µM	3.21 µM	4.78 µM	6.83 µM	10.5 µM	> 25 µM	4.79 µM	6.27 µM	
CN(C)C(=S)/N=c1\ss/c(=N\C(=S)N(C)C)n1-c1cccc(Cl)c1		> 100 µM	> 100 µM	> 100 µM		> 100 µM	> 100 µM	> 100 µM												
CC(C)(C)C#COC(=O)c1ccccc1		> 100 µM	> 100 µM	> 100 µM	> 100 µM		> 100 µM	> 100 µM												
CC(=O)[CH-]C(C)=O.CC(=O)[CH-]C(C)=O.[O-]c1ccccc1.[O-]c1ccccc1.[Ti+4]	> 100 µM	> 100 µM		> 100 µM	> 100 µM	> 100 µM	> 100 µM	> 100 µM		> 100 µM		> 100 µM	> 100 µM	> 100 µM			> 100 µM	> 100 µM	> 100 µM	
COC1=CC(c2ccc[nH]2)=N/C1=C\c1[nH]c(C)c(C(=O)CCCCCCCCC(=O)O[C@H]2CC[C@H]3C4CCc5cc(O)ccc5C4CC[C@]23C)c1C (stereo not given in full)	1.43 µM	> 50 µM	2.23 µM	> 50 µM	> 50 µM	2.79 µM	1.09 µM	> 50 µM	7.06 µM	0.428 µM		0.167 µM	1.06 µM	0.267 µM	0.235 µM	0.148 µM	5.02 µM	0.29 µM	0.182 µM	
COc1cc2c(/C=C3\C(=O)Nc4ccccc43)c[nH]c2cc1C	22.3 µM		0.843 µM	2.52 µM	3.21 µM		7.43 µM	61.4 µM	2.69 µM	0.142 µM		1.54 µM		0.225 µM	< 0.0178 µM	0.289 µM	0.0856 µM		0.0775 µM	
CCN(CC)C(=S)SSC(C)C	36.1 µM		20.6 µM	25.4 µM	95.7 µM	37.6 µM	35.4 µM		32.5 µM	3.76 µM	33.7 µM	15.2 µM			6.1 µM	14.6 µM	30.3 µM	15.8 µM	16.7 µM	14.2 µM
COc1cc2c(cc1C)NC(=O)/C2=C/c1ccnc2ccccc12	> 50 µM	> 50 µM	> 50 µM	> 50 µM	> 50 µM		> 50 µM	33.6 µM	32.6 µM	> 50 µM	> 50 µM	12.4 µM	12.6 µM	6.34 µM	> 50 µM	9.49 µM	12.6 µM		13.1 µM	28.7 µM
CN1CCCC2[C@@H]3CCC4c5nonc5CC[C@]4(C)C3CC[C@@]21C (stereo not given in full)		> 100 µM		> 100 µM	> 100 µM	> 100 µM	> 100 µM	> 100 µM												
O=c1[nH]ccc(CNC23CC4CC(CC(C4)C2)C3)c1O		> 100 µM	> 100 µM	> 100 µM	> 100 µM	> 100 µM	> 100 µM	> 100 µM												
N/N=C(/Cc1ccccc1)NNO	> 100 µM	> 100 µM	> 100 µM	> 100 µM		> 100 µM	> 100 µM	> 100 µM												
O=c1c(Cc2ccccc2)c(O)cc2n1CCC2	> 100 µM	> 100 µM	> 100 µM	> 100 µM	> 100 µM	> 100 µM	> 100 µM	> 100 µM												
O=C1CC23CCCCCCCCCCC2(C1)CC(=O)C3 (stereo not given)	51.8 µM	83 µM	44.4 µM	56.2 µM	65.2 µM			73.3 µM												
c1ccc2c(c1)[nH]c1c2nc2ccccn21	> 100 µM	> 100 µM	> 100 µM	> 100 µM	> 100 µM	> 100 µM	> 100 µM	> 100 µM										45.6 µM and > 100 µM		
